# Data reported in patent US8889894B2, “Compounds for use in therapy” (Bangor University, priority 2008, dated 2014).
# Experiments:
# alveolar macrophages = test: Foaming of mycolic acid treated alveolar macrophages (ORO-stained lung sections); type: in vivo, C57BL/6 mice; settings: single intratracheal dose of liposomes carrying compound, a week earlier; compared with empty liposomes or liposomes containing compound 1; FIG. 2
# Protocol: (§1) Briefly, the compounds were mixed with phosphatidylcholine (Sigma) in chloroform. The chloroform was evaporated and the lipids recovered in sterile saline. After ultrasound sonication and vortexing, samples of 25 μg mycolic acids/100 μl/mouse were administered intratracheally. A liposome control was prepared similarly, but without the addition of any mycolic acid compound.
# Formation of cholesterol-rich foamy alveolar macrophages upon intratracheal instillation of mycolic acid containing liposomes is indicative of a possible mycolic acid induced suppression of Th2-mediated eosinophilia. In a mouse model of allergic asthma this is mediated by a mechanism involving antigen presentation by these foam cells and the activity of regulatory T-lymphocytes (Korf et al, Am. J. Respir. Crit. Care Med., 174, 1-9, 2006).
# We verified the induction of cholesterol-loaded cells in the lungs of C57BL/6 mice that received a single dose of liposomes carrying compounds a week earlier. The mice were treated with empty liposomes, liposomes containing control compound 1, liposomes containing compound 2 and liposomes containing compound 4. Frozen lung sections were stained with the lipophilic Oil Red O dye (ORO) thereby visualising foam cell intracellular lipid vesicles and counterstained with haematoxylin. […]
# C547BL/6 mice [1] = test: Histo-pathological examination of lung tissue (haematoxylin and eosin, score 0-5); type: in vivo; settings: 48 hours after intratracheal liposomes; lavaged lungs, double-blinded pathologist score; FIG. 4
# From the text: Lavaged lungs were ectomised to allow for histo-pathological examination of the lung tissue. A haematoxylin and eosin staining of the paraffin lung sections was followed by a thorough examination by a skilled pathologist who scored the sections according to the following criteria in a double-blinded manner:
# 1=a minority of the bronchi are surrounded by some infiltrated inflammatory cells
# 2=the majority of the bronchi are surrounded by some infiltrated inflammatory cells
# 3=dispersed are some heavy infiltrates of neutrophils and eosinophils
# 4=a lot of infiltrating neutrophils and eosinophils throughout the entire lung section
# 5=same as 4 with additionally signs of airway remodelling e.g. basal membrane thickening, mucus overproduction and/or smooth muscle cell hyperplasia
# C547BL/6 mice [2] = test: Inflammatory cell infiltration to the airways (BAL, flowcytometry); type: in vivo; settings: 48 hours after intratracheal liposomes; BAL-fluid; compared to empty liposome treatment
# Protocol: as §1
# In order to be considered safe for therapeutic administration, compounds should preferably cause as little local inflammation or resulting tissue changes as possible.
# After 48 hours, mice were sacrificed and a broncho-alveolar lavage (BAL) was performed to measure the airway cell types and numbers by flowcytometry. Increased cell numbers and the appearance of granulocytes (mainly neutrophils) in the BAL-fluid are indicative for cell recruitment to the airways as result of an inflammatory reaction.
# [3] = tested on: CD4+ T-helper (Th) lymphocytes; test: mRNA expression patterns by RT-qPCR of CD4+ T-helper lymphocytes from asthmatic mouse lungs; type: in vivo; settings: compounds in liposomes; with reference to empty liposome treatment; FIG. 7
# From the text: From the previous examples it can be concluded that the synthetic mycolic acids have a significant effect on immune reactivity. The nature of the immune modification appears to be structure dependent. This can be seen from examination of mRNA expression patterns by RT-qPCR of CD4+ T-helper (Th) lymphocytes, isolated from asthmatic mouse lungs after treatment with compounds 6, 8 and 9 formulated into liposomes. The results are shown in FIGS. 7a to e with reference to an empty liposome treatment. All of the synthetic mycolic acid isomers repressed the transcription of the Th2 effector cytokine IL-4 to some degree.
# [4] = tested on: Th2-driven allergic airway inflammation; test: Suppression of allergic airway inflammation in a mouse asthma model (OVA/Alum immunised, OVA-aerosol challenge); type: in vivo; settings: liposomes intratracheally to OVA/Alum immunised mice, OVA-aerosol challenge after 7 days; flowcytometry (CCR3+); vs empty liposomes; FIG. 5
# Protocol: as §1
# Liposome containing synthetic mycolic acids compounds 5, 6 and 7 were administered intratracheally to mice which had been immunised for the experimental allergen chicken egg ovalbumin (OVA) adjuvanted with Alum (aluminium hydroxide). Following 7 days, the mice were challenged with OVA-aerosol. Th2-driven allergic airway inflammation was apparent in empty liposomes treated animals, from high eosinophil counts in the BAL-fluid by flowcytometry (CCR3^+).
inflammatory cell infiltration to the airways (C547BL/6 mice [2]),SMILES,scores of ORO positive cells/microscopic field (alveolar macrophages),lung tissue changes (C547BL/6 mice [1]),other results
–,CCCCCCCCCCCCCCCCCCCCCCCC[C@@H](C(=O)O)[C@H](O)CCCCCCCCCCC[C@H]1CC1CCCCCCCCCCCCCC[C@H]1C[C@H]1CCCCCCCCCCCCCCCCCCCC (some centres unmarked) [Compound 2],significantly higher scores,–,–
–,"CCCCCCCCCCCCCCCCCCCCCCCC[C@@H](C(=O)O)[C@H](O)CCCCCCCCCCCCCCC[C@@H]1C[C@@H]1CCCCCCCCCCCCCCCCCCC(=O)[C@@H](C)CCCCCCCCCCCCCCCCCC (single isomer, unassigned) [Example 3]",–,–,melting point: 66 to 68 °C
do not,CCCCCCCCCCCCCCCCCCCCCCCC[C@@H](C(=O)O)[C@H](O)CCCCCCCCCCCCCCCC[C@H]1C[C@@H]1[C@@H](C)CCCCCCCCCCCCCCCCCCC(=O)C(C)CCCCCCCCCCCCCCCCCC (some centres unmarked) [Compound 4],significantly higher scores,did not cause any significant lung tissue changes,–
–,CCCCCCCCCCCCCCCCCCCCCCCC[C@@H](C(=O)O)[C@H](O)CCCCCCCCCCCCCCCCC[C@@H]1CC1CCCCCCCCCCCCCCCC[C@@H](OC)[C@@H](C)CCCCCCCCCCCCCCCCCC (some centres unmarked) [Compound 6],–,–,FoxP3 (regulatory T-cell) response [3]: especially good in suppressing; Gata-3 transcription (Th2) [3]: especially good in suppressing; IL-4 transcription (Th2 effector cytokine) [3]: especially good in suppressing; eosinophil count in the BAL-fluid [4]: at least two-fold decreased
do not,CCCCCCCCCCCCCCCCCCCC[C@H]1C[C@H]1CCCCCCCCCCCCCCC1C[C@H]1CCCCCCCCCCC[C@@H](O)[C@@H](CC)C(=O)O (some centres unmarked) [Compound 3],–,did not cause any significant lung tissue changes,–
